Several values for one entry are separate records, joined by “and”; a condition that tells them apart may be missing. Equal entries are not always repeated. Positions of bridges follow the written chain, without caps; N, C: chain ends. Residues, ends and D or L forms follow the SMILES beside them. No end group written: not given here.
What was measured:
[1] = R. Guillemin et al, Science, 218, p.585 (1982); cited from earlier work
[2] = test system: anterior pituitaries obtained from male Wistar Rats; assay: GH release from pieces of rat anterior pituitaries on a column, radioimmunoassay (Pharmacological Test Example 1); type: cell-based
Method: Small pieces of anterior pituitaries obtained from male Wistar Rats were placed on top of a column being an injection cylinder having one […] diameter packed with 0.3 to 0.5 ml. of Sephadex G 25 equilibrated with a Krebs-Ringer buffer solution containing 0.1% calf serum at a flow rate of 0.5 ml./min. On the column were chromatographed 1 ml. of a control solution (a Klebs-Ringer buffer solution), 1 ml. of 2 μg./ml. solution of TRH and 1 ml. of 2 μg./ml. solution of the GH--RH obtained in Example 1 in that order. The column effluent was collected in 1 ml.-fractions and each fraction was analyzed by means of a radioimmunoassay with an anti-rat GH antibody (NIH standard) to determine an amount of the released rat GH in the assay.

Male Wistar rats = assay: GH-releasing activity of [Gln^16 ]--GH--RH in vivo, plasma GH by RIA (Pharmacological Test Example 3); design: species or system rat; conditions: for GH Concentration, individual rats / GH Concentration Mean ± S.E.: plasma; for GH Concentration, individual rats: rats G, H, I, J, K, L in order; for GH Concentration Mean ± S.E.: procedure of Test Example 2, six rats G to L
Method: Male Wistar rats of 10 weeks old were used. The rats were anesthetized with pentobarbital administered intraperitoneally (i.p.) in a dosage of 50 mg./kg. and fixed. Silastic tube (Dow Corning 0.020 in I.D., by 0.037 in O.D.) cannula of 3.5 cm was inserted to the heart side of right jugular vein in the rat. In the rat with chronic vein-cannula in plant, the other side of the cannula was taken out by 3 cm. from backside of neck and fixed on outer layer of skin.
From the cannula was injected 0.5 ml. of 20 units/ml. heparin, and then the cannula was pluged with a stainless-steel wire stopper. The rats were subjected to injecting of GH--RH and blood-gathering under non-anesthetic condition on the next day. Chlorpromazine hydrochloride was administered i.p. before 4 hrs. of injection in a dosage of 2 mg./kg. Four rats (D to G) received injection from the cannula of 440 μg./kg. of GH--RH obtained from salmon in Example 1. Three rats (A to C) received physiological saline as a control.
From each rat, 0.5 ml. of blood was gathered before 15 minutes of injection and after 15, 30, 60, 120 and 180 minutes of injection.
The gathered blood was centrifuged at 2,000×g for 10 minutes. For measuring GH-releasing activity, the supernatant (plasma) was assayed by means of a radio immuno assay (hereinafter referred to as "RIA") according to a double antibody method (see C. A. Birge et al Endocrinology 81, p.195 (1967)). The RIA of rat GH was carried out by employing NIH kit. The results are shown in Table 4 and FIG. 8 in which symbols A to G described in Table 4 correspond to those described in FIG. 8.
The procedure of Pharmacological Test Example 2 was repeated except that six rats were used, respectively, as to the group receiving [Gln^16 ]--GH--RH and as to the group receiving physiological saline and the blood-gathering was carried out before 15 minutes of injection and after 15, 30, 60, 120, 180, 240 and 300 minutes, respectively, of injection.

Molecule: hpGRF: GH-releasing factor isolated from human pancreatic cancer (YADAIFTNSYRKVLGQLSARKLLQDIMSRQQGESNQERGARARL; ends and bridges not checked; UniProt P01286 32-75, looked up)
- time after injection at which increase of GH is shown [1]: 5 min

Molecule: thyrotropic releasing hormone [TRH]
- Amount of Released Rat GH ([2]; 1 ml. of 2 μg./ml. solution on the column, RIA with anti-rat GH antibody): 300 ng/mL
- releasing manner of GH ([2]; elution profile of released GH): broad

Molecule: CSCC[C@@H]1NC(=O)[C@@H](NC(=O)[C@H](CCCNC(=N)N)NC(=O)[C@H](CCSC)NC(=O)[C@@H](NC(=O)[C@@H](N)CC(=O)O)[C@@H](C)O)CSSC[C@@H](C(=O)N[C@@H](Cc2c[nH]c3ccccc23)C(=O)N[C@@H](CCC(N)=O)C(=O)N[C@H](C(=O)O)C(C)C)NC(=O)[C@@H]2CCCN2C(=O)[C@H](CCCNC(=N)N)NC(=O)[C@H](Cc2ccc(O)cc2)NC(=O)[C@H](C(C)C)NC(=O)[C@H](CCCNC(=N)N)NC(=O)CNC(=O)[C@H](C(C)C)NC1=O [[Gln^16]--GH--RH] (H-DTMRCMVGRVYRPCWQV-OH; disulfide 5-14)
- increase of GH concentration in plasma compared with the control group (Male Wistar rats; FIG. 9): evident increase of GH concentration in plasma was observed from 30 to 60 minutes after injection
- GH Concentration, individual rats (Male Wistar rats; 15 min after injection): 10.04 μIU/ml. and 9.76 μIU/ml. and 7.20 μIU/ml. and 11.52 μIU/ml. and 7.64 μIU/ml. and 8.08 μIU/ml.
- GH Concentration, individual rats (Male Wistar rats; 30 min after injection): 9.80 μIU/ml. and 7.72 μIU/ml. and 34.84 μIU/ml. and 8.36 μIU/ml. and 30.68 μIU/ml. and 57.80 μIU/ml.
- GH Concentration, individual rats (Male Wistar rats; 60 min after injection): 56.52 μIU/ml. and 47.00 μIU/ml. and 63.40 μIU/ml. and 115.36 μIU/ml. and 21.48 μIU/ml. and 44.88 μIU/ml.
- GH Concentration, individual rats (Male Wistar rats; 120 min after injection): 22.48 μIU/ml. and 29.32 μIU/ml. and 23.56 μIU/ml. and 18.08 μIU/ml. and 13.24 μIU/ml. and 11.52 μIU/ml.
- GH Concentration, individual rats (Male Wistar rats; 180 min after injection): 10.08 μIU/ml. and 9.72 μIU/ml. and 10.56 μIU/ml. and 10.24 μIU/ml. and 9.48 μIU/ml. and 8.20 μIU/ml.
- GH Concentration, individual rats (Male Wistar rats; 240 min after injection): 25.84 μIU/ml. and 8.36 μIU/ml. and 30.00 μIU/ml. and 36.48 μIU/ml. and 7.80 μIU/ml. and 11.52 μIU/ml.
- GH Concentration, individual rats (Male Wistar rats; 300 min after injection): 12.36 μIU/ml. and 12.08 μIU/ml. and 10.32 μIU/ml. and 16.64 μIU/ml. and 12.96 μIU/ml. and 10.76 μIU/ml.
- GH Concentration, individual rats (Male Wistar rats; -15 min (before injection)): 10.52 μIU/ml. and 9.36 μIU/ml. and 8.56 μIU/ml. and 6.32 μIU/ml. and 7.20 μIU/ml. and 8.96 μIU/ml.
- GH Concentration Mean ± S.E. (Male Wistar rats; 15 min after injection): 9.04 ± 0.68 μIU/ml.
- GH Concentration Mean ± S.E. (Male Wistar rats; 30 min after injection): 24.87 ± 8.19 μIU/ml.
- GH Concentration Mean ± S.E. (Male Wistar rats; 60 min after injection): 58.11 ± 12.84 μIU/ml.
- GH Concentration Mean ± S.E. (Male Wistar rats; 120 min after injection): 19.70 ± 2.75 μIU/ml.
- GH Concentration Mean ± S.E. (Male Wistar rats; 180 min after injection): 9.71 ± 0.34 μIU/ml.
- GH Concentration Mean ± S.E. (Male Wistar rats; 240 min after injection): 20.00 ± 5.04 μIU/ml.
- GH Concentration Mean ± S.E. (Male Wistar rats; 300 min after injection): 12.52 ± 0.92 μIU/ml.
- GH Concentration Mean ± S.E. (Male Wistar rats; -15 min (before injection)): 8.49 ± 0.62 μIU/ml.
- GH-releasing effect (Male Wistar rats; rats in vivo): has a GH-releasing effect
